This note sets out measurements from patent US20100048671A1, “INHIBITION OF THE 44 KILODALTON ISOFORM OF PIM-1 KINASE RESTORES APOPTOSIS INDUCED BY CHEMOTHERAPEUTIC DRUGS IN CANCER CELLS” (priority 2005, published 2010).

Common to all, as to format: cell-based, human
Data set [1] relates to Pim-1L. Kind of data set: Threonine phosphorylation of endogenous BCRP after Pim-1 siRNA (immunoprecipitation with anti-BCRP, immunoblotting with anti-phosphothreonine). Conditions: MCF7/MX cells; lenti-virus encoded siRNA vs vector control. From the text:
MCF7-MX cell lysates infected with lenti-virus encoding Vector control and Pim-1 SiRNA(SiPim-1) were subjected to immunoprecipitation with monoclonal BCRP antibody, followed by immunoblotting with anti-phosphothreonine (αpThr).
(§1) The phosphorylation of BCRP is therapeutically significant because it […] BCRP from causing resistance to chemotherapeutic agents. […] Downregulating Pim-1L expression by a specific siRNA also sensitized the prostate cancer cell line CWR-R1 to apoptosis induced by the chemotherapeutic agents mitoxantrone, topotecan and docetaxel (FIG. 12). The siRNA target sequence for inhibiting Pim-1L expression used to inhibit Pim-1L expression is sequence is: 5′ GCAGGACAGUGCUUGAUAC 3′ identified as SEQ ID NO. 3, as is described in a previous study (29, the entire contents of which is hereby incorporated by reference as if fully set forth herein). This siRNA is targeted at nucleotides 1540-1558 of SEQ ID NO. 1.
The transfected cells were lysed in the buffer (20 mM TrisHCl pH 7.4, 150 mM NaCl, 1 mM EDTA, 1 mM EGTA, 1% Triton X-100, 1 mM Na3VO4, 1 mg/ml aprotinin, 1 mg/ml leupterin and 1 mM PMSF). Insoluble material was removed by centrifugation, and antibodies were added to lysates and incubated for 1-3 hour at 4° C. […]

In data set [2] the test system is MCF7-MX cells. Nature of the data set: Drug sensitivity (WST-1) of MCF7-MX cells infected with lenti-virus encoding Pim-1 SiRNA. Conditions: Flavopiridol (15 μM) or DTX (50 μM), 2 days. The method, then:
FIG. 11A: MCF7-MX cells infected with lenti-virus encoding vector control and Pim-1 SiRNA were treated with Flavopiridol (15 μM) or DTX (50 μM) as indicated for 2 days. Cell viability was determined using the WST-1 assay. P<0.05 FIG. 11B: expression levels of Pim-1, BCRP and actin analyzed by immunoblotting with the respective antibodies.
as §1

Data set [3] has as its system CWR-R1 cells. Kind of data set: Drug sensitivity (WST-1) of CWR-R1 cells infected with lenti-virus encoding Pim-1 SiRNA. Conditions: mitoxantrone (2 μM), topotecan (5 μM) or docetaxel (50 nM), 2 days. The method, then:
FIG. 12A: CWR-R1 cells infected with lenti-virus encoding vector control and Pim-1 SiRNA were treated with MX (2 μM), TPT (5 μM) or DTX (50 nM), respectively for 2 days. Cell viability was determined using the WST-1 assay. FIG. 12B: immunoprecipitation performed by using anti-BCRP.
as §1

Data set [4] relates to LNCaP cells over-expressing BCRP. Kind of data set: Drug sensitivity (WST-1) of LNCaP cells over-expressing BCRP infected with lenti-virus encoding Pim-1 SiRNA. Conditions: MX (0.5 μM) or TPT (0.1 μM), 2 days. How it is done:
FIG. 13A: LNCaP cells infected with lenti-virus encoding vector control, BCRP, Pim-1SiRNA or both were treated with the indicated drugs MX (0.5 μM) or TPT (0.1 μM) for 2 days. Cell viability was determined using the WST-1 assay FIG. 13B: Immunoprecipitation was performed by using anti-BCRP.
On the technique in general: Tetrazolium assays rely on reduction of a dye to a coloured formazan, in cell work by metabolically active cells.

Data set [5] has as its system LNCaP cells. Nature of the data set: Drug sensitivity assay (WST-1 cell viability) of lenti-virus infected LNCaP cells treated with doxorubicin. The note with it: for viability at 0.1 µg/mL: Homo sapiens, LNCaP, read-out: cells remained viable. How it is done: FIG. 5A: LNCaP cells infected with lenti-virus encoding Flag-Pim-1S, Pim-1L, Pim-1LKM (kinase-deficient mutant) or vector control were treated with doxorubicin (0.1 ug/ml) for the times as indicated. Cell viability was determined by the WST-1 assay. The data were expressed as the mean of triplicates of the doxorubicin-treated samples relative to the untreated controls. * p<0.01 compared with the vector control. The expression of the Pim-1 proteins encoded by the lenti-viruses was determined by immunoblotting with anti-Flag antibody. […] The response to doxorubicin was determined at 20 hour as above. * p<0.01 compared with the vector control; ** p<0.01 compared with Pim-1L alone. Expression of Flag-Pim-1L and T7-EtkKQ was monitored by immunoblotting with anti-Flag and anti-T7 antibody, respectively. FIG. 5C: LNCaP cells infected with the lenti-viruses encoding the indicated proteins as in 5A were treated with 10-100 nM mitoxantrone for 48 h; cell viability was determined as in 5A. * p<0.01 compared with the vector control. FIG. 5D: Etk mediates Pim-1L-induced resistance to mitoxantrone. LNCaP cell were infected with the lenti-viruses and the mitoxatrone response was determined. * p<0.01 compared with the vector control; ** p<0.01 compared with Pim-1L alone. […] LNCaP cells were transfected with the plasmids as indicated. The association of Etk with p53 was determined by immunoprecipitation with anti-p53 and followed by immunoblotting with anti-T7 antibody. The expression of p53, Etk or Pim-1 in these cells was monitored by immunoblotting with anti-p53, anti-T7 and anti-Flag antibody, respectively.
An increase of Etk activity confers drug resistance to apoptosis caused by chemotherapeutic agents in LNCaP cells (20), including doxorubicin and cisplatin. By contrast, P53 binding to Etk decreases Etk activity permits apoptosis. However, the mechanism by which Etk is activated was not known. […] As is shown in FIG. 5A, treatment of LNCaP cells with doxorubicin induced rapid apoptosis as was expected. […] Over-expression of Pim-1S conferred some initial protection against drug-induced apoptosis with about 80% cell survival at 20 h. However, such protection was not sustained until 40 hours. […] In this experiment, LNCaP cells were infected with Lenti-virus encoding Flag-Pim-1 S, Pim-1L, Pim-1LKM (kinase-deficient mutant) or vector control for 24h.
LNCaP cells were infected with the lentiviruses encoding the proteins as indicated by using the protocol described previously (19). At 48 hour post-infection, the cells were seeded into the 96 well plates (3×10^4/well). Doxorubicin or mitoxantrone was added in the medium after 24 h. The effects of doxorubicin on the viability of cells were measured after 20-48 hour by the WST-1 assay (Roche Molecular Biochemicals). The viability rates are expressed as means±SD of the triplicate for each experiment. An aliquot of cells was lysed and followed by immunoblotting with anti-T7 or anti-Flag to monitor the transfection efficiency.

The test system of data set [6] is LNCaP cells. Nature of the data set: Induction of Pim-1 expression by IL-6 (immunoblotting with monoclonal anti-Pim-1 antibody). The note with it: serum starved LNCaP cells; 25 ngml IL-6, 24 hour, 37 degrees. An excerpt:
FIG. 1A: Induction of Pim-1 expression by IL-6 in LNCaP cells. FIG. 1B: The effects of neutralizing antibody against IL-6 on the protein level of Pim-1 in PC3 cells. FIG. 1C: Expression of the two isoforms of Pim-1 by the EST clones in transfected LNCaP, 22Rv1 and PC3 cells FIG. 1D: The N-terminal unique sequence in human 44 kD Pim-1. Part of the sequence of the 5′ end of Pim-1 cDNA in the EST clones is shown. The putative alternative translation initiation site CUG and the start codon AUG are in boldface. FIG. 1E: Alignment of the unique N-terminal sequence in the 44 kD Pim-1 from human and mouse origins. Proline-rich motifs are underlined and bold. The translation initiation sites of the two isoforms are shown by arrows.
Induction of Pim-1 expression by IL-6 was assessed in serum starved LNCaP cells that were treated with 25 ngml IL-6 for 24 hour at 37 degrees. The level of Pim-1 protein was examined by immunoblotting with a monoclonal anti-Pim-1 antibody (Top). The same blot was then probed with anti-actin to monitor the sample loading (Bottom). […] One embodiment of the present invention is directed to the isolated human 44 kD isoform identified by SEQ ID NO. 4 or a functional equivalent or variant thereof and its use in screening assays. We are the first to isolate and describe the gene for the 44 kD isoforms identified in SEQ ID NO. […]
On the technique in general: Immunoblotting shows a protein as a band on a membrane.

Where two headings read alike, the source gives them in different places. Bounds are passed on as bounds.

With “5′ GCAGGACAGUGCUUGAUAC 3′ (lentivirus encoded, further chemistry not given here; listed as Homo sapiens) [siRNA, 1, lenti-virus encoded]”, the “phosphorylation of BCRP” value in data set [1] is “significantly reduced”. Besides, the BCRP-mediated drug resistance entry in data set [2] was “inhibited BCRP-mediated drug resistance”. Moreover, the “sensitivity to apoptosis induced by chemotherapeutic agents” value in data set [3] is “sensitized”. For the same molecule, the “BCRP-mediated resistance to mitoxantrone and topotecan” value in data set [4] was “able to reduce or compromise BCRP-mediated resistance”.
On to `COc1cccc2c1C(=O)c1c(O)c3c(c(O)c1C2=O)C[C@@](O)(C(=O)CO)C[C@@H]3O[C@H]1C[C@H](N)[C@H](O)[C@H](C)O1` [doxorubicin], for which the viability at 0.1 µg/mL in data set [5] (20 h) was approximately 50%; in data set [5] (40 h), more than 70%. The apoptotic cells detected entry in data set [5] (LNCaP cells expressing Pim-1L, doxorubicin 0.1 ug/ml, 20 hours post-treatment) is “Virtually no apoptotic cells were detected”. The same molecule returned a cells that survived in data set [5] (LNCaP cells expressing the empty vector or kinase-inactive Pim-1LKM, doxorubicin 0.1 ug/ml, 40 hour treatment) of 20%. The cell survival entry in data set [5] (LNCaP cells over-expressing Pim-1S, doxorubicin 0.1 ug/ml, 20 h) is “about 80%”.
Take “IL-6: interleukin 6, cytokine used to induce Pim-1 expression”: the “expression of the 44 kD Pim-1 protein” value in data set [6] was “induced”.
